Usually IC50 stands for the concentration that inhibits the measured activity by half.

This is an account of results in patent US5652353A, “DNAs encoding tumor necrosis factor-α muteins” (priority 1990, dated 1997).

The subject of assay [1] is U937 cells (predominantly but not exclusively p75-TNF-R). The experiment in a line: Competition analysis: displacement of 125I-TNF-α by unlabeled mutant TNF on U937 cells. It counts as binding, human. The note with it: for Mean dpm: Table A. Here is the method:
(§1) Hep-2 [ATCC No. CCL 23], U937 [ATCC No. CRL 1593] and RAJI [ATCC No. CCL 86] cells were grown in RPMI 1640 medium, supplemented with 10% (v/v) inactivated .fetal calf serum, L-glutamine (2 mM), sodium pyruvate (1 mM), 2-mercaptoethanol (5×10^-5 M), 1% of a 100× mixture of non-essential amino acids [Gibro Laboratories, Paisley, GB] and gentamycine ([…]). The non-adherent cells (U937 and RAJI) were harvested after reaching a density of 1×10^6 cells/ml. For binding experiments, the adherent Hep-2 cells were grown to confluency, trypsinized, collected and seeded in large. Petri dishes (150 cm^2) at a density of 2.5×10^6 cells/ml. Subsequently, the dishes were placed in a CO2 -incubator overnight. Because Hep-2 cells are not strongly adherent, the cells could be harvested the same way as the non-adherent cells. Dulbecco's medium, supplemented with 10% inactivated newborn calf serum was used for L929 cell growth. […] A ten well dilution series of unlabeled mutant TNF ([…] to 0.004 μM) in concentration steps in multiples of 2 was set up in a microtiterplate. […] After addition of 2×10^6 cells, the total volume was 0.2 ml/well. The medium of incubation, reaction conditions and isolation of the cells were exactly the same as described above for the Scatchard analysis experiments. […] The following experimental data were used for such calculations: From each experiment shown in these tables, the KD value was calculated using the programm of Mc. Pherson et al. (1985).
In general terms: Loss of bound radioactivity is the signal in a displacement assay; it reports binding, not function.

Assay [2] relates to Hep-2 cells (only carry p55-TNF-R). The experiment in a line: Competition analysis: displacement of 125I-TNF-α by unlabeled mutant TNF on Hep-2 cells. Format: binding, human. The note with it: for Mean dpm: Table C. On the procedure: as §1
The test system of another assay is Hep-2 cells. Format: cell-based, human. The note with it: in words; accuracy of assay a factor of 3. Here is the method:
(§2) The amount of protein was determined by the Biorad (Richmond, Calif., USA) protein dye reagent according to the instructions of the manufacturer. The purity of the TNF muteins was determined by SDS-PAGE. The cytotoxic activity on mouse L929 cells was determined using the standard L929 assay (Ruff and Gifford in "Lymphokines", ed. by E. Pick, Vol. 2, 235-275, Academic Press, 1981, Orlando, USA). The cytotoxicity assay on Hep-2 cells was performed the same way as the L929 assay with the only exception that cycloheximide (50 μg/ml) was added instead of actinomycin D.

For the next assay, the system named is mouse L929 cells. The experiment in a line: Standard L929 cytotoxicity assay. It counts as cell-based. The note with it: relative to TNF-α. On the procedure: as §2
For a further assay, the system named is human p75-TNF-R. Kind of assay: Filter binding competition of 125I-TNFα on purified p75-TNF-R from HL60 cells. Here is the method: (§3) The filters were blocked with blocking buffer (50 mM Tris, 140 mM NaCl, 5 mM EDTA, 0.02% NaN3, 1% defatted milk powder) for 1.5 hours at room temperature. […] The filters were washed with blocking buffer (2× for 5 min.) and with H2 O (1× for 5 min.), air dried, and counted in a γ-counter.

For the next assay, the system named is human p55-TNF-R. Kind of assay: Filter binding competition of 125I-TNFα on purified p55-TNF-R from HL60 cells. The conditions noted are these: with respect to TNFα. Here is the method:
as §3

Assay [3] concerns human p75-TNF-R versus human p55-TNF-R. Kind of assay: Selectivity factor S from competitive binding to p75-TNF-R and p55-TNF-R. The conditions noted are these: based on IC50 p75-TNF-R and IC50 p55-TNF-R (Table F, FIGS. 10A-10E). Here is the method: as §3
After three hours at room temperature the wells were thoroughly washed with PBS and counted in a γ-counter.

With “Ser^29 -TNFα: TNF-α mutein with serine substituted at position 29, SEQ ID No: 4”, the “binding affinity for p75-TNF-R as share of its binding affinity to p55-TNF-R” value in assay [1] is given as “about 2%”. The Mean dpm in assay [1] (experiment 1, U937 cells, concentration of mutant 1 × 10^-6 [mol]) was 632 dpm; in assay [1] (experiment 1, U937 cells, concentration of mutant 1 × 10^-9 [mol]), 1869 dpm; in assay [1] (experiment 1, U937 cells, concentration of mutant 1.25 × 10^-7 [mol]) it was 1200 dpm; in assay [1] (experiment 1, U937 cells, concentration of mutant 2 × 10^-6 [mol]), 533 dpm; in assay [1] (experiment 1, U937 cells, concentration of mutant 2 × 10^-9 [mol]), 1779 dpm; in assay [1] (experiment 1, U937 cells, concentration of mutant 3.2 × 10^-8 [mol]), 1415 dpm. In addition, the Mean dpm in assay [1] (experiment 1, U937 cells, concentration of mutant 4 × 10^-9 [mol]) was 1719 dpm; in assay [1] (experiment 1, U937 cells, concentration of mutant 5 × 10^-7 [mol]), 949 dpm; in assay [1] (experiment 1, U937 cells, concentration of mutant 6.4 × 10^-8 [mol]), 1320 dpm; in assay [1] (experiment 1, U937 cells, concentration of mutant 8 × 10^-9 [mol]), 1708 dpm; in assay [1] (experiment 1, U937 cells, concentration of mutant […] 10^-7 [mol]) it was 983 dpm; in assay [1] (experiment 1, U937 cells, concentration of mutant […] 10^-8 [mol]) it was 1575 dpm. Moreover, the Mean dpm came to 263 dpm in assay [1] (experiment 2, U937 cells, concentration of mutant 1 × 10^-6 [mol]); 413 dpm in assay [1] (experiment 2, U937 cells, concentration of mutant 1.2 × 10^-7 [mol]); 541 dpm in assay [1] (experiment 2, U937 cells, concentration of mutant 1.5 × 10^-8 [mol]); 238 dpm in assay [1] (experiment 2, U937 cells, concentration of mutant 2 × 10^-6 [mol]); 572 dpm in assay [1] (experiment 2, U937 cells, concentration of mutant 3 × 10^-8 [mol]); 635 dpm in assay [1] (experiment 2, U937 cells, concentration of mutant 4 × 10^-9 [mol]). Further, the Mean dpm is 319 dpm in assay [1] (experiment 2, U937 cells, concentration of mutant 5 × 10^-7 [mol]); 489 dpm in assay [1] (experiment 2, U937 cells, concentration of mutant 6 × 10^-8 [mol]); 603 dpm in assay [1] (experiment 2, U937 cells, concentration of mutant 8 × 10^-9 [mol]); 380 dpm in assay [1] (experiment 2, U937 cells, concentration of mutant […] 10^-7 [mol]); 359 dpm in assay [2] (experiment 1, Hep-2 cells, concentration of mutant 1 × 10^-6); 799 dpm in assay [2] (experiment 1, Hep-2 cells, concentration of mutant 1 × 10^-9). The Mean dpm in assay [2] (experiment 1, Hep-2 cells, concentration of mutant 1.25 × 10^-7) was 379 dpm; in assay [2] (experiment 1, Hep-2 cells, concentration of mutant 2 × 10^-6), 383 dpm; in assay [2] (experiment 1, Hep-2 cells, concentration of mutant 2 × 10^-9), 677 dpm; in assay [2] (experiment 1, Hep-2 cells, concentration of mutant 3.2 × 10^-8), 442 dpm; in assay [2] (experiment 1, Hep-2 cells, concentration of mutant 4 × 10^-9), 564 dpm; in assay [2] (experiment 1, Hep-2 cells, concentration of mutant 5 × 10^-7) it was 437 dpm. In addition, the Mean dpm in assay [2] (experiment 1, Hep-2 cells, concentration of mutant 6.4 × 10^-8) is listed as 446 dpm; in assay [2] (experiment 1, Hep-2 cells, concentration of mutant 8 × 10^-9) it was 510 dpm; in assay [2] (experiment 1, Hep-2 cells, concentration of mutant […] 10^-7), 374 dpm; in assay [2] (experiment 1, Hep-2 cells, concentration of mutant […] 10^-8), 451 dpm; in assay [2] (experiment 2, Hep-2 cells, concentration of mutant 1 × 10^-6) it was 193 dpm; in assay [2] (experiment 2, Hep-2 cells, concentration of mutant 1.2 × 10^-7) it was 239 dpm. The Mean dpm is recorded as 253 dpm in assay [2] (experiment 2, Hep-2 cells, concentration of mutant 1.5 × 10^-8); 238 dpm in assay [2] (experiment 2, Hep-2 cells, concentration of mutant 2 × 10^-6); 235 dpm in assay [2] (experiment 2, Hep-2 cells, concentration of mutant 3 × 10^-8); 273 dpm in assay [2] (experiment 2, Hep-2 cells, concentration of mutant 4 × 10^-9); 211 dpm in assay [2] (experiment 2, Hep-2 cells, concentration of mutant 5 × 10^-7); 207 dpm in assay [2] (experiment 2, Hep-2 cells, concentration of mutant 6 × 10^-8). This substance returned a Mean dpm in assay [2] (experiment 2, Hep-2 cells, concentration of mutant 8 × 10^-9) of 240 dpm. In addition, the “reduction of binding affinity for p75-TNF-R” value in assay [1] (relative to its binding affinity to p55-TNF-R) was “approximately 50 fold”. In addition, the “binding constant (KD) with Hep-2 cells compared with TNF-α” value in assay [2] (in words) is given as “almost the same as TNF-α”. Also, the “biological activity (specific activity) on Hep-2 cells” value in the assay with Hep-2 cells is reported as “largely retained”. In addition, the “decrease of biological activity on L929 cells (factor)” value in the assay with mouse L929 cells is given as “more than 100”. Further, the IC50 in the assay with human p75-TNF-R (competition with 125I-TNFα) came to 2.5 µg/mL. The “Decrease in Affinity” value with human p75-TNF-R (with respect to TNFα) was 250 fold; in the assay on human p55-TNF-R, 8.2 fold.

On to “Tyr^29 -TNFα: TNF-α mutein with tyrosine substituted at position 29, SEQ ID No: 6”, for which, in assay [3], the “selectivity factor S” value is listed as 110.

“Tyr^32 -TNFα: TNF-α mutein with tyrosine substituted at position 32, SEQ ID No: 10”: the “selectivity factor S” value in assay [3] is reported as 90.
